Assay results as given in patent US6413948B1, “Pharmaceutical compositions and methods of effecting a neuronal activity in an animal using naaladase inhibitors” (Guilford Pharmaceuticals Inc., priority 1996, dated 2002).

How the values were obtained:
[1] = test system: cortical cell cultures; experiment: In vitro assay of NAALADase inhibitors on ischemia (potassium cyanide and 2-deoxyglucose, LDH release); assay type: cell-based, rats
Procedure: The methods for this assay are described in detail below.
Dissociated cortical cell cultures are prepared using the papain-dissociation method of Heuttner and Baughman (1986) as modified by Murphy and Baraban (1990). […] Fetuses of embryonic day 17 are removed from timed pregnancy rats (Harlan Sprague Dawley). The cortex is rapidly dissected out in Dulbecco's phosphate-buffered saline, stripped of meninges, and incubated in a papain solution for 15 minutes at 37° C. The tissue is then mechanically triturated and pelleted at 500 g (1000-2000 rpm on swinging bucket Beckman). The pellet is resuspended in a DNAase solution, triturated with a 10 ml pipette ×15-20, layered over a “10×10” solution containing albumin and trypsin inhibitor (see TABLE VII for an example of a “10×10” solution), repelleted, and resuspended in a plating medium containing 10% fetal bovine serum (HyClone A-1111-L), 5% heat-inactivated Equine serum (HyClone A-3311-L), and 84% modified Earle's basal medium (MEM) (Gibco 51200-020) with high glucose (4.5 g/L), and 1 g/L NaHCO3. Each 24-well plate is pretreated with poly-D-lysine (0.5 ml/well of 10 μg/ml) for 1 h and rinsed with water before plating. Cultures are plated at 2.5×10^6 cells/ml with each well of a 24 well plate receiving 500 μl/well. Alternatively, 35 mm dishes can be plated at 2 ml/dish, 6 well plates at 2 ml/well, or 12 well plates at 1 ml/well. After plating, 50% of the medium is changed every 3-4 days with growth serum containing 5% heat-inactivated Equine serum (HyClone A3111-L), 95% modified Earle's basal medium (MEM)(Gibco 51200-020), and 1% L-Glutamine (Gibco 25030-081). Experiments are performed after 21 days in cultures. Cultures are maintained in a 5% CO2 atmosphere at 37° C.
Twenty-one to twenty-four days following the initial cortical cell plating, the experiment is performed. The cultures are washed three times in HEPES buffered saline solution containing no phosphate. […] At the end of 24 hours, the cultures are analyzed for release of the cytosolic enzyme lactate dehydrogenase (LDH), a standard measure of cell lysis. LDH measurements are performed according to the method of Koh and Choi, J. Neuroscience Methods (1987).
Release of the cytosolic enzyme lactate dehydrogenase (LDH), a standard measure of cell lysis, is used to quantify injury (Koh and Choi, 1987). LDH-activity measurements are normalized to control for variability between culture preparations (Koh and Choi, 1987). […] This control measurement is subtracted from each experimental point. […] Only main effects of NAALADase inhibitors are considered; interactions between dose and condition are not examined statistically.

[2] = test system: spinal cord organotypic cultures; experiment: Spinal cord culture model of ALS (THA toxicity, ChAT activity); assay type: cell-based, rats
Procedure: Organotypic cultures were prepared from lumbar spinal cord of 8 day old rats, as described by Rothstein et al., J. Neurochem., Vol. 65, No. 2 (1995), and Rothstein et al., Proc. Natl. Acad. Sci. USA, Vol. 90, pp. 6591-6595 (July 1993). In brief, lumbar spinal cords were removed and sliced into 300 […] sections, and five slices were placed on Millipore CM semipermeable 30-mm-diameter membrane inserts. The inserts were placed on 1 ml of culture medium in 35-mm-diameter culture wells. Culture medium consisted of 50% minimal essential medium and phosphate-free HEPES (25 mM), 25% heat-inactivated horse serum, and 25% Hanks' balanced salt solution (GIBCO) supplemented with D-glucose (25.6 mg/ml) and glutamine (2 mM), at a final pH of 7.2. Antibiotic and antifungal agents were not used. Cultures were incubated at 37° C. in 5% CO2 containing humidified environment (Forma Scientific). Culture medium, along with any added pharmacological agents, was changed twice weekly.
Drugs were incubated for an additional 13 to 20 days with the 100 μM THA. At the end of this period, cultures were collected assayed for ChAT activity as described below.
To determine choline acetyltransferase (ChAT) activity, the spinal cord tissues in each dish (five slices) were pooled and frozen (−75° C.) until assay. ChAT activity was measured radiometrically by described methods using [^3H] acetyl-CoA (Amersham; Fonnum, 1975). Protein content of tissue homogenate was determined by a Coomassi Protein Assay kit (Pierce, Rockford, Ill.).

O=C(O)CCC(CP(=O)(O)O)C(=O)O (stereo not shown) [2-(phosphonomethyl)pentanedioic acid]
% Toxicity ([1]; ischemic insult, 100 pM): 66.57 ± 4.38 (n = 5) %
% Toxicity ([1]; ischemic insult, 1 nM): 42.31 ± 9.34 (n = 5) %
% Toxicity ([1]; ischemic insult, 10 nM): 33.08 ± 9.62 (n = 5) %
% Toxicity ([1]; ischemic insult, 100 nM): 30.23 ± 9.43 (n = 5) %
% Toxicity ([1]; ischemic insult, 1 μM): 8.56 ± 8.22 (n = 5) %
% Toxicity ([1]; time of administration: Delayed 30 Minutes): 31.49%
% Toxicity ([1]; time of administration: Exposure & Recovery): 2.54%
% Toxicity ([1]; time of administration: Recovery Only): 9.03%
ChAT Activity (% of Control) ([2]; Table XII, THA (100 μM) and 1 nM, 14 days): −23.9 ± 18.6 % of Control
ChAT Activity (% of Control) ([2]; Table XII, THA (100 μM) and 10 nM, 14 days): 23.1 ± 12.5 % of Control
ChAT Activity (% of Control) ([2]; Table XII, THA (100 μM) and 100 nM, 14 days): 87.5 ± 21.7 % of Control
ChAT Activity (% of Control) ([2]; Table XII, THA (100 μM) and 1 μM, 14 days): 187.7 ± 32.8 % of Control
ChAT Activity (% of Control) ([2]; Table XII, THA (100 μM) and 10 μM, 14 days): 128.7 ± 17.2 % of Control
protection of the cultures from THA toxicity (in words) ([2]; co-incubation with THA, 100 nM-10 μM): significantly protected
ChAT Activity (% of Control) ([2]; compound alone): 108 ± 18.4 % of Control
ChAT Activity (% of Control) ([2]; compound and THA): 121 + 18.8 % of Control
